# US20130225539A1, “METHOD FOR PRODUCING CRYSTALLINE 5-AMINOSALICYLIC ACID” (Pharmazell GMBH, priority 2010, published 2013)
# Where two headings read alike, the source gives them in different places.
# Experiments:
# Format in all cases: physicochemical
# [1] = Tapped density (USP 616, Method 2); conditions: crystalline powder
# Method: (§1) The bulk density and tapped density are measured by methods known to the skilled person, such as those described in the USP (“United States Pharmacopeia”) monograph, e.g., USP 27, Vol. 1, pp. 226 to 227, May 1, 2009-Apr. 30, 2010, Bulk Density 616, Method 1, Tapped Density 616, Method 2. The measurement of the grain size distribution is effected according to the protocols of European Pharmacopeia, Supplement 6.6, Chapter 2.9.31 “Particle Size Analysis by Laser Light Diffraction” pp. 5103-5107.
# [2] = Grain size distribution by laser light diffraction (Ph. Eur. 2.9.31)
# Method: as §1
# (§2) The crystals are described by their particle size distribution as observed by laser diffraction, their optical micrograph image and their aspect ratio which can be determined, for example, by means of image analysis using the Malvern Symex FPIA 3000.
# [3] = Bulk density (USP 616, Method 1); conditions: crystalline powder
# Method: as §1
# [4] = Crystal shape by image analysis (Malvern Sysmex FPIA 3000): aspect ratio, circularity; conditions: for Aspect ratio (width/length; w/l): main fraction of the crystals
# Source text: as §2
# The aspect ratio (width/length; w/l) is expressed by a proportion. In the case of the 5-ASA according to the invention having a particularly high bulk density, the main fraction of the crystals has an aspect ratio around 0.5. From this, a width to length ratio of w/l of 1:2 can be calculated. In the 5-ASA having a high bulk density according to the invention, the aspect ratio is around 0.36, thus corresponding to a width to length ratio of 1:3. The different aspect ratios of the 5-ASA crystal fractions according to the invention having high and particularly high bulk densities bring about the different bulk and tapped densities and the differently broad grain size distributions seen in the laser diffractograms according to FIG. 10 and FIG. 11.
# The measured value of circularity describes the deviation of the crystal shape from ideal spherical shape. A value of 1 corresponds to an ideal sphere.
# [5] = listed as 5-ASA coarse crystals
Structure (SMILES),Tapped density [1] [g/L],"Tapped density [1, 5] [g/L]",Grain size distribution X(10) [2],Grain size distribution X(50) [2],Grain size distribution X(90) [2],"Grain size distribution X(10) [2, 5]","Grain size distribution X(50) [2, 5]","Grain size distribution X(90) [2, 5]",Bulk density [3] [g/L],"Bulk density [3, 5] [g/L]",Tapped density ([1]; listed as 5-ASA fine crystals) [g/L],Grain size distribution X(10) ([2]; listed as 5-ASA fine crystals),Grain size distribution X(50) ([2]; listed as 5-ASA fine crystals),Grain size distribution X(90) ([2]; listed as 5-ASA fine crystals),Bulk density ([3]; listed as 5-ASA fine crystals) [g/L],Circularity ([4]; 1 = ideal sphere),Aspect ratio (width/length; w/l) ([4]; listed as 5-ASA according to the invention having a particularly high bulk density),Aspect ratio (width/length; w/l) ([4]; listed as 5-ASA having a high bulk density according to the invention)
"Nc1ccc(O)c(C(=O)O)c1 [5-ASA coarse acicular crystals, 5-aminosalicylic acid]",450 to 480,450 to 480,X (10) = 10-15 μm,X (50) = 50-60 μm,X (90) = 200-220 μm,X(10) = 10-15 μm,50-60 μm,200-220 μm,250 to 270,250 to 270,–,–,–,–,–,–,–,–
"Nc1ccc(O)c(C(=O)O)c1 [5-ASA fine acicular crystals, 5-aminosalicylic acid]",300 to 390,–,X (10) = 2-6 μm,X (50) = 8-20 μm,X (90) = 25-50 μm,–,–,–,150 to 190,–,300 to 390,X(10) = 2-6 μm,8-20 μm,25-50 μm,150 to 190,–,–,–
"Nc1ccc(O)c(C(=O)O)c1 [Example 1, 5-aminosalicylic acid]",600 to 800,–,X(10) = 7-10 μm,25-35 μm,80-90 μm,–,–,–,400 to 500,–,–,–,–,–,–,~0.8,around 0.5,–
"Nc1ccc(O)c(C(=O)O)c1 [Example 2, 5-aminosalicylic acid]",510 to 700,–,X(10) = 3-5 μm,15-45 μm,90-100 μm,–,–,–,300 to 400,–,–,–,–,–,–,–,–,around 0.36
